Literature values in patent US20260297123A1, “METHODS FOR THE SYNTHESIS OF NUCLEOSIDE ANALOGUES AND NUCLEOSIDES ANALOGUES DERIVED THEREFROM” (SIMON FRASER UNIVERSITY, priority 2023, published 2026).
Read-outs that look alike come from different tables or passages of the source.

Settings: for pKa, H2O: values <0 and >14 extrapolated; for pKa, H2O (first of several listed) / pKa, (DMSO) (first of several listed): first value listed; for pKa, H2O (second of several listed) / pKa, (DMSO) (second of several listed): second value listed
[1] = DMSO (values in parentheses), values <0 and >35 extrapolated

pKa, (DMSO) [1] | SMILES | pKa, H2O (H2O) | further results
 | ON=C(c1ccccc1)c1ccccc1 | 11.3 | 
(13.7) | O=C(NO)c1ccccc1 |  | pKa, H2O (NH) (H2O, NH): 8.88 (NH)
(16.5) | CN(O)C(=O)c1ccccc1 |  | 
 | NCCN |  | pKa, H2O (first of several listed) (H2O): 6.90; pKa, H2O (second of several listed) (H2O): 9.95
 | CCC(=O)Nc1ccccc1 |  | pKa, (DMSO) (dmso): (21.6)
 | O=C1CCCN1 | 12 | 
 | O=C1NC(=O)c2ccccc21 | 6.30 | 
(13.5) | CN(C)C(=N)N(C)C |  | 
(17.0) | Oc1ccccn1 |  | 
 | C1=Cc2ccccc2C1 | 20 | 
(20.0) | CCOC(=O)C[N+](C)(C)C |  | 
(14.2) | CCOC(=O)CC(C)=O | 11 | 
(17.2) | N#CCC(=O)N1CCCC1 |  | 
 | CCC(=O)CC | 19-20 | 
 | CC(=O)C(C)(C)C |  | pKa, (DMSO) (dmso): (27.7)
 | C[S+](Cc1ccccc1)c1ccccc1 (centres unmarked) |  | pKa, (DMSO) (first of several listed): 16.2; pKa, (DMSO) (second of several listed): 16.3
(18.8) | CS(=O)(=O)C(F)(F)F |  | 
 | Nc1ccc2ccccc2c1 [2-naphthal-N^+H3] | 4.16 | 
(17.1) | Oc1ccc2ccccc2c1 [2-napthol] |  | 
(17.9) | OC(C(F)(F)F)C(F)(F)F [(CF3)2CHOH] |  | 
(17.9) | CC(=O)NC(C)=O [Ac2NH] |  | 
 | OB(O)O [B(OH)3] | 9.23 | 
 | OCC(F)(F)F [CF3CH2OH] | 12.5 | 
(9.7) | NS(=O)(=O)C(F)(F)F [CF3SO2NH2] |  | 
 | CC(=O)OO [CH3CO3H] | 8.2 | 
 | C1CN2CCN1CC2 [DABCO] |  | pKa, (DMSO) (first of several listed): 2.97; pKa, (DMSO) (second of several listed): 8.93; pKa, H2O (first of several listed) (H2O): 2.97; pKa, H2O (second of several listed) (H2O): 8.82

pKa, (DMSO) [1] | SMILES | pKa, H2O (H2O) | further results
 | C1CCC2=NCCCN2CC1 [DBU] |  | pKa, (DMSO) (dmso): (12) (estimate)
 | CN(C)c1ccncc1 [DMAP] | 9.2 | 
 | CCP(CC)CC [Et3P^+H] | 9.1 | 
 | [O]=[Cr](=[O])([OH])[OH] [H2CrO4] |  | pKa, H2O (first of several listed) (H2O): −0.98; pKa, H2O (second of several listed) (H2O): 6.50
 | O=S(O)O [H2SO3] |  | pKa, H2O (first of several listed) (H2O): 1.9; pKa, H2O (second of several listed) (H2O): 7.21
(0.9) | Br [HBt] |  | 
 | O=NO [HNO2] | 3.29 | 
 | O=[N+]([O-])O [HNO3] | −1.3 | 
 | OCl [HOCl] | 7.5 | 
 | OO [HOOH] | 11.6 | 
 | N#CS [HSCN] | 4.00 | 
 | CO [MeOH] | 15.54 | 
 | COO [MeOOH] | 11.5 | 
(17.5) | CS(N)(=O)=O [MeSO2NH2] |  | 
(12.9) | CS(=O)(=O)Nc1ccccc1 [MeSO2NHPh] |  | 
 | c1ccc(Nc2ccccc2)cc1 [Ph2N^+H2] | 0.78 | 
(7.0) | N#CC[P+](c1ccccc1)(c1ccccc1)c1ccccc1 [Ph3P^+CH2CN] |  | 
(6.2) | O=C(C[P+](c1ccccc1)(c1ccccc1)c1ccccc1)c1ccccc1 [Ph3P^+CH2COPh] |  | 
(11.8) | O=[N+]([O-])CSc1ccccc1 [PhSCH2X, X = NO2] |  | 
(11.0) | O=S(=O)(CSc1ccccc1)C(F)(F)F [PhSCH2X, X = SO2CF3] |  | 
(16.1) | NS(=O)(=O)c1ccccc1 [PhSO2NH2] |  | 
(17.2) | NNS(=O)(=O)c1ccccc1 [PhSO2NHNH2] |  | 
 | CN(C)c1cccc2cccc(N(C)C)c12 [Proton Spong ?] |  | pKa, (DMSO) (second of several listed): 7.50; pKa, H2O (second of several listed) (H2O): 12.0
(16.2) | O=[N+]([O-])CCc1ccccc1 [RNO2, R = CH2Bn] |  | 
 | O=C(O)C(Cl)(Cl)Cl [drawing 16, X = CCl3] | 0.65 | 
 | O=C(O)C(F)(F)F [drawing 16, X = CF3] | −0.25 | 

pKa, (DMSO) [1] | SMILES | pKa, H2O (H2O) | further results
 | O=C(O)C[N+](=O)[O-] [drawing 16, X = CH2NO2] | 1.68 | 
 | O=C(O)O [drawing 16, X = HO] |  | pKa, H2O (first of several listed) (H2O): 3.6
 | O=C(O)c1cccc(Cl)c1 [drawing 16, X = m-ClC6H4] | 3.83 | 
 | O=C(O)c1cccc([N+](=O)[O-])c1 [drawing 16, X = m-O2NC6H4] | 2.45 | 
 | C[N+](C)(C)c1ccccc1C(=O)O [drawing 16, X = o-(CH3)3N^+C6H4] | 1.37 | 
 | C[N+](C)(C)c1ccc(C(=O)O)cc1 [drawing 16, X = p-(CH3)3N^+C6H4] | 3.43 | 
 | O=C(O)c1ccc([N+](=O)[O-])cc1 [drawing 16, X = p-O2NC6H4] | 3.44 | 
 | C=CC(=O)O [drawing 17, R = H] | 4.25 | 
(13.3) | CC(=O)CC(C)=O [drawing 77, X = COCH3] | 9 | 
(15.1) | CC(=O)CS(=O)(=O)c1ccccc1 [drawing 77, X = SO2Ph] |  | 
(18.7) | CC(=O)CSc1ccccc1 [drawing 77, X = SPh] |  | 
(12.7) | CC(=O)CC(=O)c1ccccc1 [drawing 82, X = COCH3] |  | 
(13.3) | O=C(CC(=O)c1ccccc1)c1ccccc1 [drawing 82, X = COPh] |  | 
(7.7) | O=C(C[N+](=O)[O-])c1ccccc1 [drawing 82, X = NO2] |  | 
(14.6) | C[N+](C)(C)CC(=O)c1ccccc1 [drawing 82, X = N^+Me3] |  | 
(11.4) | O=C(CS(=O)(=O)c1ccccc1)c1ccccc1 [drawing 82, X = SO2Ph] |  | 
(16.9) | O=C(CSc1ccccc1)c1ccccc1 [drawing 82, X = SPh] |  | 
(19.1) | N#CC1SCCCS1 [drawing 97, X = CN] |  | 
(12.0) | N#CCS(=O)(=O)c1ccccc1 [drawing 107, X = CN] |  | 
(12.5) | CC(=O)CS(=O)(=O)c1ccccc1 [drawing 107, X = COMe] |  | 
(7.1) | O=[N+]([O-])CS(=O)(=O)c1ccccc1 [drawing 107, X = NO2] |  | 
(19.4) | C[N+](C)(C)CS(=O)(=O)c1ccccc1 [drawing 107, X = N^+Me3] |  | 
 | CC(C)O [i-PrOH] | 16.5 | 
 | O=[N+]([O-])c1cccc(O)c1 [m-C2NC6H4OH] | 8.35 | 
 | CC(C)(C)O [t-BuOH] | 17 | 

SMILES | pKa, (DMSO) [1] | pKa, H2O (H2O) | further results
NNC(=O)c1ccccc1 | (18.9) |  | 
CCCCS [BuSH] | (17.0) | 10-11 | 
O=S(=O)(O)C(F)(F)F [CF3SO3H] | (0.3) |  | 
F [HF] | (15) | 3.17 | 
N#CN [NCNH2] | (16.9) |  | 
CN(C)c1ccccc1 [PhN^+(Me)2H] | (2.50) | 5.20 | 
CC[N+](=O)[O-] [RNO2, R = CH2Me] | (16.7) |  | 
O=[N+]([O-])Cc1ccccc1 [RNO2, R = CH2Ph] | (12.2) |  | 
C[N+](=O)[O-] [RNO2, R = CH3] | (17.2) |  | 
CC(C)[N+](=O)[O-] [RNO2, R = CHMe2] | (16.9) |  | 
NC(=O)C(F)(F)F [drawing 41, R = CF3] | (17.2) |  | 
CC(=O)Cc1ccccc1 [drawing 77, X = Ph] | (19.8) |  | 
N#CCC(=O)c1ccccc1 [drawing 82, X = CN] | (10.2) |  | 
O=C(Cc1ccccc1)c1ccccc1 [drawing 82, X = Ph] | (17.7) |  | 
O=C(C[Se]c1ccccc1)c1ccccc1 [drawing 82, X = SePh] | (18.6) |  | 
O=[N+]([O-])c1ccc(O)cc1 [p-O2NC6H4OH] | (10.8) | 7.14 | 
COc1ccc(O)cc1 [p-OMeC6H4OH] | (19.1) | 10.20 | 
